Legend:
[1] = Solid stability test of crystal form A (influencing factors and accelerated conditions; HPLC purity and XRPD); assay type: physicochemical
Protocol: All the stability samples were subjected to XRPD detection to detect changes in crystal forms.
About 10 mg of the crystal form was accurately weighed, put in a dry and clean glass bottle, spread into a thin layer, covered with aluminum foil with small pierced holes, and put under conditions of the influencing factor test and accelerated conditions. A sample under sunlight conditions (1200000 Lux visible light, and 200 W ultraviolet light) was put in a transparent glass bottle and fully exposed, and a sample used for XRPD detection was put separately.
After the sample was taken out by a time point, the glass bottle was covered with a lid, sealed with parafilm, and stored in a refrigerator at −20° C. During sample preparation, the sample was taken out of the refrigerator and recovered to room temperature, 10 mL of 80% ACN was added, and the sample was dissolved by ultrasonication for 2 minutes to obtain a solution at a concentration of about 1 mg/mL. A liquid phase was used for sample analysis, and the test result was compared with an initial test result on Day 0.
Preparation of a standard solution on Day 0: About 10 mg of the crystal form was weighed, put into a 10 mL volumetric flask, dissolved in 80% acetonitrile and diluted to the scale.
In addition, all the stability samples were subjected to the HPLC tests.

[2] = molecular target: KDR (VEGFR-2) protein kinase (Homo sapiens (Human), UniProt P35968); assay: In vitro evaluation of inhibitory activity against KDR (VEGFR-2) protein kinase (ADP-Glo kinase assay); assay type: biochemical
KDR (VEGFR-2) protein kinase, sequence (P35968 20-1356): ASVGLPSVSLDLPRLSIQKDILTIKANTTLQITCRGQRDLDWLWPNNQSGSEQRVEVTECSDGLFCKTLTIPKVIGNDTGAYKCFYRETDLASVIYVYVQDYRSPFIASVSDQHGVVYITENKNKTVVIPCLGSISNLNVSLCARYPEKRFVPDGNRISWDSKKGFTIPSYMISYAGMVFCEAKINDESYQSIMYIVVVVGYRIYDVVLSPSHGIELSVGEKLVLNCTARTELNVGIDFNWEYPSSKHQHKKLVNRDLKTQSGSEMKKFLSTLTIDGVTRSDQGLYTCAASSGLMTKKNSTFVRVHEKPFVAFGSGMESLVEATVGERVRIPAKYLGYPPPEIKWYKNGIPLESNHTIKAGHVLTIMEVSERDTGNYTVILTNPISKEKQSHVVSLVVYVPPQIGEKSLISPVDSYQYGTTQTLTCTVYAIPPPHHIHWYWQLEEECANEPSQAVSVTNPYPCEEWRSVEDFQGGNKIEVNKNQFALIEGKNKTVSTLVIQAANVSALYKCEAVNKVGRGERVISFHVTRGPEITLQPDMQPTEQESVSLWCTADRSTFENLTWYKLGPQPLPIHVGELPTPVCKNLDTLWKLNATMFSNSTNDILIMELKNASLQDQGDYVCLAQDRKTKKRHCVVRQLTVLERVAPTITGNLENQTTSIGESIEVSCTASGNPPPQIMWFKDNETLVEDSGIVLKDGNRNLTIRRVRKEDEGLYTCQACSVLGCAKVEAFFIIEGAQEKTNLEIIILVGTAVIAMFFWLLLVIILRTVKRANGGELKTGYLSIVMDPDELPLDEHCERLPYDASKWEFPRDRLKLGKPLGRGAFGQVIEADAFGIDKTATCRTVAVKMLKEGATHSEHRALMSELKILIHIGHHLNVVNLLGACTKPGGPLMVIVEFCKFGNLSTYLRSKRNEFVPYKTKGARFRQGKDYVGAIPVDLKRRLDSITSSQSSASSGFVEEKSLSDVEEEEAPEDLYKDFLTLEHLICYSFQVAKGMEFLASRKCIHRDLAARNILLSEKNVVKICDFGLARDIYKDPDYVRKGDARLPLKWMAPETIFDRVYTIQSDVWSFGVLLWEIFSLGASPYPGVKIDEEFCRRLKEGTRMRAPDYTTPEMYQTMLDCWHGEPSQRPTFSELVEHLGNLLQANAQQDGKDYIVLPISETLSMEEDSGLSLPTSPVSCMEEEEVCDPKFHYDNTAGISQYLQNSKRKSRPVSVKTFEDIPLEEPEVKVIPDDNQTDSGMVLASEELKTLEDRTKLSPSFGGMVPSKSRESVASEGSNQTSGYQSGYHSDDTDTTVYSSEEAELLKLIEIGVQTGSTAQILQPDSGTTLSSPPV
Text: The KDR Kinase Kit was designed to use Kinase-Glo® MAX as a teat reagent to measure KDR kinase activity, and the IC50 value of the compound was used as an indicator for compound screening and analysis.
ADP-GLO™ Kinase Assay is an assay reaction for measuring adenosine diphosphate formed by the kinase by using a luminescent kinase; and ADP was converted into ATP, that is, conversion into a light signal via Ultra-Glo™ Luciferase. The light signal was positively correlated with the quantity of ADP and kinase activity. Such assay was very suitable for determining the activity of the compound, making the assay ideal for primary screening and a kinase selectivity assay. The ADP-Glo™ Kinase Assay can be used to monitor the activity of almost all ADP-producing enzymes (for example, a kinase or ATPase): • 1) Enzyme, substrate, ATP and inhibitors were diluted in kinase buffer; • 2) 384-well plate: 1 μL of inhibitor or (5% dimethyl sulfoxide solution) 2 μL of KDR enzyme, and 2 μL of substrate/ATP mixture; • 3) The 384-well plate was incubated at room temperature for 60 minutes; • 4) 5 μL of ADP-GLO™ reagent was added; • 5) The 384-well plate was incubated at room temperature for 40 minutes; • 6) 10 μL of kinase test reagent was added; • 7) The 384-well plate was incubated at room temperature for 30 minutes; • 8) Lumination (integration time: 0.5 to 1 second) was recorded. […]

[3] = 40° C., relative humidity 75%, opened, 1 months
[4] = 40° C., relative humidity 75%, opened, 2 months
[5] = 40° C., relative humidity 75%, opened, 3 months
[6] = 60° C., relative humidity 75%, opened, 1 month
[7] = 60° C., relative humidity 75%, opened, 2 months
[8] = Control group kept in the dark, wrapped with tin foil
[9] = High humidity (relative humidity 92.5%, opened), 1 week
[10] = High humidity (relative humidity 92.5%, opened), 2 week
[11] = High temperature (60° C., opened), 1 week
[12] = High temperature (60° C., opened), 2 week
[13] = Visible light + ultraviolet light (ICH condition), visible 1200000 lux·hrs

- Crystal form (XRPD) [1, 3]: Crystal form A
- Purity (area %) [1, 3]: 99.12 area %
- Crystal form (XRPD) [1, 4]: Crystal form A
- Purity (area %) [1, 4]: 99.06 area %
- Crystal form (XRPD) [1, 5]: Crystal form A
- Purity (area %) [1, 5]: 99.04 area %
- Crystal form (XRPD) [1, 6]: Crystal form A
- Purity (area %) [1, 6]: 99.15 area %
- Crystal form (XRPD) [1, 7]: Crystal form A
- Purity (area %) [1, 7]: 99.03 area %
- Crystal form (XRPD) [1, 8]: Crystal form A
- Purity (area %) [1, 8]: 99.12 area %
- Crystal form (XRPD) ([1]; Day 0): Crystal form A
- Purity (area %) ([1]; Day 0): 99.05 area %
- Crystal form (XRPD) [1, 9]: Crystal form A
- Purity (area %) [1, 9]: 99.03 area %
- Crystal form (XRPD) [1, 10]: Crystal form A
- Purity (area %) [1, 10]: 99.11 area %
- Crystal form (XRPD) [1, 11]: Crystal form A
- Purity (area %) [1, 11]: 98.99 area %
- Crystal form (XRPD) [1, 12]: Crystal form A
- Purity (area %) [1, 12]: 99.10 area %
- Crystal form (XRPD) [1, 13]: Crystal form A
- Purity (area %) [1, 13]: 99.12 area %
- change in purity and crystal form ([1]; all stability conditions (high temperature, high humidity and sunlight)): no significant change
- chemical stability ([1]; conclusion in words): good chemical stability
- IC50 [2]: 28 nM
- inhibitory activity against KDR (VEGFR-2) ([2]; conclusion in words): good inhibitory activity
Compound: c1cn2c(n1)c(Nc1ccc(N3CCOCC3)cc1)nc1ccc(-c3cn[nH]c3)cc12

From patent US20240132503A1, “SALT FORM AND CRYSTAL FORM OF PYRAZOLE SUBSTITUTED IMIDAZO[1,2- A]QUINOXALINE DERIVATIVE” (OCUMENSION THERAPEUTICS (SUZHOU) CO., LTD, priority 2021, published 2024)
